Experimental data as given in ChEMBL document CHEMBL1201862, “PubChem BioAssay data set” (2004).
Values belong to the compound of their own block, whether it stands above or below them. Calls of active or inactive are those of the source.

How the values were obtained:
HeLa = assay: HeLa cell cytotoxicity, dose response, cytotoxicity control for MITF activator project, CellTiter-Glo luminescence, cherry-pick samples (AID 540259); format: functional, cell-based; settings: Homo sapiens
[1] = biological target: 26S proteasome non-ATPase regulatory subunit 14 (Homo sapiens, UniProt O00487); assay: inhibition of proteasome subunit RPN11 – biochemical, fluorescence polarization, uHTS hits, confirmation (AID 602368); format: functional
Sequence of 26S proteasome non-ATPase regulatory subunit 14 (O00487 whole entry): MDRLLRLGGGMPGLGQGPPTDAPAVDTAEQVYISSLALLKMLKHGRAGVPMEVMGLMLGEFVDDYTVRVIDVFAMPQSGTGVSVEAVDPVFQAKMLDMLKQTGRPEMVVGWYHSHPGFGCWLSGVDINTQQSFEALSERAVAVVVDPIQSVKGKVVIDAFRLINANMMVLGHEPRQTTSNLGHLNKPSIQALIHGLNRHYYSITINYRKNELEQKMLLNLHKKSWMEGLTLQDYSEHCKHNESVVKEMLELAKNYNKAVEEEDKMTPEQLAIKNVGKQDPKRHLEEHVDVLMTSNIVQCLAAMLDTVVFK

[2] = biological target: 72 kDa type IV collagenase (Homo sapiens, UniProt P08253); assay: Dose Response validation of uHTS RPN11 inhibitor hits using a MMP-2 Fluorescence assay.; format: functional
Sequence of 72 kDa type IV collagenase (P08253 whole entry): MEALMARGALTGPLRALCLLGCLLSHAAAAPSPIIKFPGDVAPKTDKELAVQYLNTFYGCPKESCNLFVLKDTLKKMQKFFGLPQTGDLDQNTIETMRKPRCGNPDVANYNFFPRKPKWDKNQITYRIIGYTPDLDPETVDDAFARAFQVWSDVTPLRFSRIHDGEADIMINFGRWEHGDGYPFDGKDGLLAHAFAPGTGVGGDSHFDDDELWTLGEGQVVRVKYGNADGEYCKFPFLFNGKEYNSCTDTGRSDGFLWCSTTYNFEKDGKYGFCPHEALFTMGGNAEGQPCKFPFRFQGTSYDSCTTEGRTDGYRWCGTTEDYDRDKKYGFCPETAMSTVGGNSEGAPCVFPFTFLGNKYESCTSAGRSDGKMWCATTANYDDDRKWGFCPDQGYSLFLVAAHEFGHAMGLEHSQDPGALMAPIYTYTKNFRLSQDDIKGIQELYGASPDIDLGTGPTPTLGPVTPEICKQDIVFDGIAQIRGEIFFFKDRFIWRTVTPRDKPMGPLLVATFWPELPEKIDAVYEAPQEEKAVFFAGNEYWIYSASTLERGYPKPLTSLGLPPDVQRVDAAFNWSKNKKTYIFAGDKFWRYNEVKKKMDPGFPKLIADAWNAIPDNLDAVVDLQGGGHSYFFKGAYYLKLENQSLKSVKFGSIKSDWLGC

[3] = biological target: T1, Intestinal-type alkaline phosphatase (Homo sapiens, UniProt P09923); assay: human IAP inhibitors, dose response, biochemical, luminescent, uHTS hits, set 2 (AID 488793); format: functional
T1 sequence (P09923 whole entry): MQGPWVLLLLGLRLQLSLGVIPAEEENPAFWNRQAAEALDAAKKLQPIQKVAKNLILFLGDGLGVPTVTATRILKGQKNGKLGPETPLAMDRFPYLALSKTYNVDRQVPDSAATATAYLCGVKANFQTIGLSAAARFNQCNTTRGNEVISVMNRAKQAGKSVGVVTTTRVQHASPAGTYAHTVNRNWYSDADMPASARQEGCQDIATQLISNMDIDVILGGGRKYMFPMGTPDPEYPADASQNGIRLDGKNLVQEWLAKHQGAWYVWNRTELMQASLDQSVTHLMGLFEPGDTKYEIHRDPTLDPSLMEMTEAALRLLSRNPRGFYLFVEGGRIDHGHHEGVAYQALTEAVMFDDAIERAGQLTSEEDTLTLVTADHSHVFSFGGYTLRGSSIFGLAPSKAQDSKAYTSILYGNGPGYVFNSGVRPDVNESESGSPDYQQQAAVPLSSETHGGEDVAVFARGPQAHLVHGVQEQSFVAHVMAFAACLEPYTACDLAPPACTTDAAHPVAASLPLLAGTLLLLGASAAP

Prothrombin = Prothrombin (Bos taurus, UniProt P00735); assay: thrombin inhibition, dose response, biochemical, fluorescence polarization, uHTS hits (AID 602369); format: functional
Aminopeptidase N = biological target: T2, Aminopeptidase N (Plasmodium falciparum FcB1/Columbia, UniProt O96935); assay: P. falciparum M1AAP inhibitors, biochemical, fluorogenic H-Leu-NHMec substrate, 1536-well (AID 1445); design: species or system Plasmodium falciparum 3D7, 3D7
T2 sequence (O96935 whole entry): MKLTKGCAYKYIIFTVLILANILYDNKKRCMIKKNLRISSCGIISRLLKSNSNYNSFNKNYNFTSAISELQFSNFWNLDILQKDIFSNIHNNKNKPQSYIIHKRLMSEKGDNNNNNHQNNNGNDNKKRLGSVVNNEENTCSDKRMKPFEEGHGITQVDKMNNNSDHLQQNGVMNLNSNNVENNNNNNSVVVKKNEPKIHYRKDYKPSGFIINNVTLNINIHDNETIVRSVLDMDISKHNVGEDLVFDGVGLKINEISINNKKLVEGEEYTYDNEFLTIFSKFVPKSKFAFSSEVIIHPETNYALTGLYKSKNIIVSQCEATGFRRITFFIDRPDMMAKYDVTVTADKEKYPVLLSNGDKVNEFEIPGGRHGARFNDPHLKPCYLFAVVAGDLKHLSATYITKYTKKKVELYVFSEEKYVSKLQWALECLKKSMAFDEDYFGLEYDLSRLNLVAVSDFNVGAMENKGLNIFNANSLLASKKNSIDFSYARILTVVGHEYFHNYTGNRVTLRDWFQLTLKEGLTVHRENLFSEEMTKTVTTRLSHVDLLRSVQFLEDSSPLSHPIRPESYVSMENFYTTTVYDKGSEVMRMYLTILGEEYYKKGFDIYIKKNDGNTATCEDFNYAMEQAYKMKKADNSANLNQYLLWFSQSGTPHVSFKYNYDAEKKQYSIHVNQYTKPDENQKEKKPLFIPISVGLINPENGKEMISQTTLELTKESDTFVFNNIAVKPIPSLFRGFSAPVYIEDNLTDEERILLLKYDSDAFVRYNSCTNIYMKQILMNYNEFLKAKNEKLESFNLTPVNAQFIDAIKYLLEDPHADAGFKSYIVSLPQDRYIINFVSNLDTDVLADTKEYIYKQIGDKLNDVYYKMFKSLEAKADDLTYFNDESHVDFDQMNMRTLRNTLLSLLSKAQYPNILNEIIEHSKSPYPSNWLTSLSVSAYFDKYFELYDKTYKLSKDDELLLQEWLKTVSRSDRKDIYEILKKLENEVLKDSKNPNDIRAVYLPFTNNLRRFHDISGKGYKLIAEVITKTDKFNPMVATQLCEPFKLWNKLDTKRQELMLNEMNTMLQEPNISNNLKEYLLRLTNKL

[4] = biological target: T1, Intestinal-type alkaline phosphatase; assay: Dose Response confirmation of uHTS hits from a small molecule inhibitors of human intestinal alkaline phosphatase via a luminescent assay. [Related pubchem assays (depositor defined):AID2544, AID2574]; format: functional
[5] = biological target: T3, Alkaline phosphatase, tissue-nonspecific isozyme (Homo sapiens, UniProt P05186); assay: inhibition of tissue-nonspecific alkaline phosphatase – biochemical, dose response (AID 488882); format: functional
T3 sequence (P05186 whole entry): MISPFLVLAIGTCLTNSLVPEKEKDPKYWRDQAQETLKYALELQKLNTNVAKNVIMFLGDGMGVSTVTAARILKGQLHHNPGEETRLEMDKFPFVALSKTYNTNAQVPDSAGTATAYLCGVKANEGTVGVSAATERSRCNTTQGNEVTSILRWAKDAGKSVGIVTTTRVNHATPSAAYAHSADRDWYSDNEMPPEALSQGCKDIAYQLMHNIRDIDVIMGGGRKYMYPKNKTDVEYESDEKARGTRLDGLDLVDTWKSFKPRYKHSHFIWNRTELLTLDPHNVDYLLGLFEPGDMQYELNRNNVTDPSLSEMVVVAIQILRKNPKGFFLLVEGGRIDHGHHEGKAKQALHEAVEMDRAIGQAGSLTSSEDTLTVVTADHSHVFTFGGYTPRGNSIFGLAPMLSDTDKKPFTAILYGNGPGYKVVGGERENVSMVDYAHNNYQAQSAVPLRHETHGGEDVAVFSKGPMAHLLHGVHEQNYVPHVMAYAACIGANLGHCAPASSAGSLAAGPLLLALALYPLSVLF

[6] = biological target: Heat shock protein HSP 90-alpha (Homo sapiens, UniProt P07900); format: functional, organism-based
[7] = biological target: Intestinal-type alkaline phosphatase (Mus musculus, UniProt P24822); assay: PubChem AID 488874; format: functional
Sequence of Intestinal-type alkaline phosphatase (Mus musculus, UniProt P24822) (P24822 whole entry): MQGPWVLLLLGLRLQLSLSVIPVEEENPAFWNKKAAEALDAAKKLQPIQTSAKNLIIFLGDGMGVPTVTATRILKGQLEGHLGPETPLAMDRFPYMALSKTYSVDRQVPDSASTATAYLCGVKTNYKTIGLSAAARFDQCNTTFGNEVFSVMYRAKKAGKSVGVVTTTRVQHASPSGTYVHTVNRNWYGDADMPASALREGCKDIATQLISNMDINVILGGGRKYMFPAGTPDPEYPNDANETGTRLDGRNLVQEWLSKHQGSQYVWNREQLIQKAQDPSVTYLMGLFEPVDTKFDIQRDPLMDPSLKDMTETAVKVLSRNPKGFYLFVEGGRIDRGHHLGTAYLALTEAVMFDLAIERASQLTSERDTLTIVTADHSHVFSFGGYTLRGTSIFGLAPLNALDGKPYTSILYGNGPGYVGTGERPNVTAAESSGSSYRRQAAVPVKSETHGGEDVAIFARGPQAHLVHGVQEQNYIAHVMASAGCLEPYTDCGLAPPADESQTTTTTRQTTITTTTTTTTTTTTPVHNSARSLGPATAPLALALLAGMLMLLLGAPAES

[8] = biological target: T4, Mannose-6-phosphate isomerase (Homo sapiens, UniProt P34949); assay: PMI enzyme inhibitors, confirmation, biochemical, fluorescence intensity (AID 1535)
T4 sequence (P34949 whole entry): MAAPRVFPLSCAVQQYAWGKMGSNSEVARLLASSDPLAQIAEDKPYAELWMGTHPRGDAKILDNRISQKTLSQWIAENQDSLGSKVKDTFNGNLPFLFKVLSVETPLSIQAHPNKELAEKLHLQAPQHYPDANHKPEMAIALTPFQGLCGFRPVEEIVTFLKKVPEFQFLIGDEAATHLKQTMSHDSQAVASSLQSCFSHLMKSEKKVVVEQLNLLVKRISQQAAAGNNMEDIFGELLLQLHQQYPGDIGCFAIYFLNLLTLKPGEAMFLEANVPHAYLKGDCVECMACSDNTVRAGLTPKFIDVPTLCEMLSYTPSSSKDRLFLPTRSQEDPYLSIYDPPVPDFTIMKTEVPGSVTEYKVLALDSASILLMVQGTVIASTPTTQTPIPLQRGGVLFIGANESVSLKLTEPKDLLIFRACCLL

[9] = biological target: Phosphoethanolamine/phosphocholine phosphatase (Homo sapiens, UniProt Q8TCT1); assay: SAR assay for compounds that inhibit PHOSPHO1. [Related pubchem assays (depositor defined):AID1545, AID1565, AID1574]
Sequence of Phosphoethanolamine/phosphocholine phosphatase (Q8TCT1 whole entry): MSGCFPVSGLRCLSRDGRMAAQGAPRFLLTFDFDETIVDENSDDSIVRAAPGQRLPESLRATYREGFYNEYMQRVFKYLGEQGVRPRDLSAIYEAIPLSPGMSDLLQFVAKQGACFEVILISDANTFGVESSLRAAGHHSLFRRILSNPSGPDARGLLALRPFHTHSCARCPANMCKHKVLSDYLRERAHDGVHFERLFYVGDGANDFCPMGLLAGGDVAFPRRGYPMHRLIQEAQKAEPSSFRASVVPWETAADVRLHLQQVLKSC

Phosphomannomutase 2 = Phosphomannomutase 2 (Homo sapiens, UniProt O15305); assay: Counter screen SAR assay for PMM2 inhibitors via a fluorescence intensity assay. [Related pubchem assays (depositor defined):AID1545, AID1574]
Sequence of Phosphomannomutase 2 (O15305 whole entry): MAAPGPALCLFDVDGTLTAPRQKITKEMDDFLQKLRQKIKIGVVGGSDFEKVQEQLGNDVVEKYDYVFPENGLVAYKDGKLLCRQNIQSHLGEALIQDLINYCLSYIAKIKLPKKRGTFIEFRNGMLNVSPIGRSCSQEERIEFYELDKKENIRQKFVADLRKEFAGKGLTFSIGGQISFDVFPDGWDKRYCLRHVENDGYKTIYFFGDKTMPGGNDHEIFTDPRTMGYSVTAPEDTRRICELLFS

[10] = biological target: Luciferin 4-monooxygenase (Photuris pensylvanica, UniProt Q27757); assay: firefly luciferase enzyme inhibitors, dose response, counter-screen for HSF-1 reporter inhibitor project, biochemical, Cell Titer Glo, luminescence, cherry-picks (AID 588847)
Sequence of Luciferin 4-monooxygenase (Q27757 whole entry): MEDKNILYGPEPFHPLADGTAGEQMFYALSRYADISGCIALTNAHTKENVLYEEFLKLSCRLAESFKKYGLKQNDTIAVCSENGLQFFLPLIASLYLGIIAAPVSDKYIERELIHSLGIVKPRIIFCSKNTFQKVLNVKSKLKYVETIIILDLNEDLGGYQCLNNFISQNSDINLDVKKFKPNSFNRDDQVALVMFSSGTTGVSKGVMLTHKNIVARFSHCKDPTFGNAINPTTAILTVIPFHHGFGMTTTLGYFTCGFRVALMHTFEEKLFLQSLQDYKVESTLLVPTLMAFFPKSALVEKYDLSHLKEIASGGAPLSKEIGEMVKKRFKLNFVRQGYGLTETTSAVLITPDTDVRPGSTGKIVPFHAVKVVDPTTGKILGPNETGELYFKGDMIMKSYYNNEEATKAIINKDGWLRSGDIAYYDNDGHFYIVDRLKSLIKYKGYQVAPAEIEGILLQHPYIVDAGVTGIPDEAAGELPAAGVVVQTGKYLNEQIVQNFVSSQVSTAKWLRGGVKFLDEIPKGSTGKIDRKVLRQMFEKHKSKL

Compound: Cc1ccc(C(=O)O/N=C(\N)c2ccc(Br)cc2)cc1
AC50 (HeLa): 48.5 µM (active)

Compound: O=C(NN1C(=O)/C(=C/c2ccc(O)c([N+](=O)[O-])c2)SC1=S)c1ccccc1Cl
IC50 [1]: 39.7 µM (active)
IC50 [2]: 82.1 µM (active)
IC50 [3]: 22.9 µM (active)
IC50 (Prothrombin): 32 µM (active)
IC50 (Aminopeptidase N): 71.1 µM (active)
IC50 [4]: 25.4 µM (inactive)
IC50 [5]: 29.8 µM (active)
AC50 [6]: 2.86 µM (active)
IC50 [7]: 10.6 µM (active)

IC50 [8]: > 50 µM (inactive)
IC50 [9]: 3.6 µM (inactive)
IC50 (Phosphomannomutase 2): > 100 µM (inactive)
Compound: O=C1c2ccccc2C(=O)c2c1ccc1c(=O)n(-c3cccc([N+](=O)[O-])c3)sc21

AC50 [10]: > 52 µM (inactive)
Compound: CC12CCC(=O)C=C1CCC1C2C(O)CC2(C)C1CCC2(O)C(=O)CO (centres undefined)
